In paper PMC11739599 (Nature Communications, 2025):
pIC50: −log10 of the molar value.

Key:
Experiment in all cases: KINOMEscan panel
Assay type in all cases: biochemical
RSK4 = RSK4 (Homo sapiens, UniProt Q9UK32)
[1] = target: RSK1 (ribosomal protein S6 kinase A1) (Homo sapiens, UniProt Q15418)
RSK2 = RSK2 (Homo sapiens, UniProt P51812)
RSK3 = RSK3 (Homo sapiens, UniProt Q15349)
Chain of RSK3 (Q15349 whole entry): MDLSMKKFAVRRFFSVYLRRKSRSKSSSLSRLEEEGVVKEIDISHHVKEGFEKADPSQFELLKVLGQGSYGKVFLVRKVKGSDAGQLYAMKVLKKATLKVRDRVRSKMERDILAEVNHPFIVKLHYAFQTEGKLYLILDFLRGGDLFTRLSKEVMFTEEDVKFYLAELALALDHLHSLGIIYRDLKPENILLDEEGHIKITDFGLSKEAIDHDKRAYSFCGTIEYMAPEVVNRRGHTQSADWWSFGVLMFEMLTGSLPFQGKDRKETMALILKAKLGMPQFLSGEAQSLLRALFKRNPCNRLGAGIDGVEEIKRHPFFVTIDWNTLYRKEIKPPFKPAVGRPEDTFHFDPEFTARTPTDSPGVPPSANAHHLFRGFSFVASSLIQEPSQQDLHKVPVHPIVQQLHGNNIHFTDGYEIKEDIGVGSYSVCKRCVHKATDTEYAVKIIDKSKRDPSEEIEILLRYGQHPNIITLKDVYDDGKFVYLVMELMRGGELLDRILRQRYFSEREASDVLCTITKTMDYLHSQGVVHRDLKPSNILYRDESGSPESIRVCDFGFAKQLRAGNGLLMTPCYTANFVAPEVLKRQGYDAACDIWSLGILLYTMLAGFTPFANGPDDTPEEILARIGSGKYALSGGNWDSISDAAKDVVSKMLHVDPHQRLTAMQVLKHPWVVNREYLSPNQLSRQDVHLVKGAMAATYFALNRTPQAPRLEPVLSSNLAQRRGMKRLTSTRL

Chain of RSK2 (P51812 whole entry): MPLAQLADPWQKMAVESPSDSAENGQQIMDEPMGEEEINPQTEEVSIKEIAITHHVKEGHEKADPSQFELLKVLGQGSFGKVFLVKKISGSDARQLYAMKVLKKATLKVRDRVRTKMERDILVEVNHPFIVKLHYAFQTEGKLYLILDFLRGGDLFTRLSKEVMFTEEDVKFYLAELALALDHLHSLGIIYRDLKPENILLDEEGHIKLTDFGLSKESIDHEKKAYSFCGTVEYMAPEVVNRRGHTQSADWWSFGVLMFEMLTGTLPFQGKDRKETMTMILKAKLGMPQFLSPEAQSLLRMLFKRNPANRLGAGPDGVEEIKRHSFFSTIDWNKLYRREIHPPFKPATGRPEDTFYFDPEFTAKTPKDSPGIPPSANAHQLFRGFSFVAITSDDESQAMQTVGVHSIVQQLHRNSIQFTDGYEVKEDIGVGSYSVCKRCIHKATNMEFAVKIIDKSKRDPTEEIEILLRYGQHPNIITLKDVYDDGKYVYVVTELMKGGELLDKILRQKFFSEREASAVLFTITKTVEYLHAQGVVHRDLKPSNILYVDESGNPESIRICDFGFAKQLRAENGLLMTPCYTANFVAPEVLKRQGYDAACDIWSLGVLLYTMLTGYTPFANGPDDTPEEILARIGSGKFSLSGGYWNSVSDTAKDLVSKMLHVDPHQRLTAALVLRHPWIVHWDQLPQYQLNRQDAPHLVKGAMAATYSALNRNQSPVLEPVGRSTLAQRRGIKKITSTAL
Chain of RSK4 (Q9UK32 whole entry): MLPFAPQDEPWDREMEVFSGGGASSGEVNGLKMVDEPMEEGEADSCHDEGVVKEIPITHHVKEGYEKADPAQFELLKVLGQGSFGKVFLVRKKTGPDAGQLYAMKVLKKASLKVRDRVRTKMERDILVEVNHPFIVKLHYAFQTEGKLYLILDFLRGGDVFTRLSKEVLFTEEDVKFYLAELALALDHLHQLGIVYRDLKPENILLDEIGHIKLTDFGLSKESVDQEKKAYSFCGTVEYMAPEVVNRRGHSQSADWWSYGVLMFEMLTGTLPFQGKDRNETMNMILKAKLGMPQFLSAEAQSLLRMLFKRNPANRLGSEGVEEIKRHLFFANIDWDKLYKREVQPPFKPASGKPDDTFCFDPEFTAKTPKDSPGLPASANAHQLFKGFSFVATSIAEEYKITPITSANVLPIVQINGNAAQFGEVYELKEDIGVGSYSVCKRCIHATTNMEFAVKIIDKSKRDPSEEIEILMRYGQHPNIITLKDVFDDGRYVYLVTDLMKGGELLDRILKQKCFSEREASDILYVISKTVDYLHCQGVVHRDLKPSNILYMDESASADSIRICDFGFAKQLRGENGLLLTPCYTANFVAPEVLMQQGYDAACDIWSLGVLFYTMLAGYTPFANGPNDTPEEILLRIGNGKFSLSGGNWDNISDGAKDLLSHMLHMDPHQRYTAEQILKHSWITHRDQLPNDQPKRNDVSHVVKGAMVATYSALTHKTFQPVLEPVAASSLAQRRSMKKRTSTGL
Chain of RSK1 (ribosomal protein S6 kinase A1) (Q15418 whole entry): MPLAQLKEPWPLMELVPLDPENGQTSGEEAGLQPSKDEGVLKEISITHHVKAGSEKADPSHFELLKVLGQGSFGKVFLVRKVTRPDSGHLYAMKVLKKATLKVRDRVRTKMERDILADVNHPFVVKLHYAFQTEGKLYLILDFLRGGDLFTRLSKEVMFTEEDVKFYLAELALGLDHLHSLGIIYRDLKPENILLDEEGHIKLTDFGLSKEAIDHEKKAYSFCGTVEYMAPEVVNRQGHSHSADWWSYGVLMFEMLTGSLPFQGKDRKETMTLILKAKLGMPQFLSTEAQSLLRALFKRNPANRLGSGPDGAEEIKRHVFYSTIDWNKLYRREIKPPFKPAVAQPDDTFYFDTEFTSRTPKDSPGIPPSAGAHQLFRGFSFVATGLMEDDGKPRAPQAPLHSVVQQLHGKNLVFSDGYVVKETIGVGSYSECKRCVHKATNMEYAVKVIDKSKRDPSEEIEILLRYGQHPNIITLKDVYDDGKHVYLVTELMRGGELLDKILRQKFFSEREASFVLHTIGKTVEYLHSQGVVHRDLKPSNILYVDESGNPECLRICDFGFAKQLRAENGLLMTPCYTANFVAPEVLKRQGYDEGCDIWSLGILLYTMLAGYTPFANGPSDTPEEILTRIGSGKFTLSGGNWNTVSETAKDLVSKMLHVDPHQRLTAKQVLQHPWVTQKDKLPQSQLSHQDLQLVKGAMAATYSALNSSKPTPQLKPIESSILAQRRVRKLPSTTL

PMD-026
pIC50 (RSK4): 8.70 | pIC50 [1]: 8.70 | pIC50 (RSK2): 9.15 | pIC50 (RSK3): 9.05
